The source made the active and inactive calls. No cut-off for these calls is given here.
What was measured:
[1] = target: T1, 2-5A-dependent ribonuclease (Homo sapiens) (UniProt Q05823); experiment: Inhibition of his6-tagged full length human RNase L expressed in insect cells at 250 uM incubated for 30 min by FRET assay relative to control
T1 sequence (whole entry): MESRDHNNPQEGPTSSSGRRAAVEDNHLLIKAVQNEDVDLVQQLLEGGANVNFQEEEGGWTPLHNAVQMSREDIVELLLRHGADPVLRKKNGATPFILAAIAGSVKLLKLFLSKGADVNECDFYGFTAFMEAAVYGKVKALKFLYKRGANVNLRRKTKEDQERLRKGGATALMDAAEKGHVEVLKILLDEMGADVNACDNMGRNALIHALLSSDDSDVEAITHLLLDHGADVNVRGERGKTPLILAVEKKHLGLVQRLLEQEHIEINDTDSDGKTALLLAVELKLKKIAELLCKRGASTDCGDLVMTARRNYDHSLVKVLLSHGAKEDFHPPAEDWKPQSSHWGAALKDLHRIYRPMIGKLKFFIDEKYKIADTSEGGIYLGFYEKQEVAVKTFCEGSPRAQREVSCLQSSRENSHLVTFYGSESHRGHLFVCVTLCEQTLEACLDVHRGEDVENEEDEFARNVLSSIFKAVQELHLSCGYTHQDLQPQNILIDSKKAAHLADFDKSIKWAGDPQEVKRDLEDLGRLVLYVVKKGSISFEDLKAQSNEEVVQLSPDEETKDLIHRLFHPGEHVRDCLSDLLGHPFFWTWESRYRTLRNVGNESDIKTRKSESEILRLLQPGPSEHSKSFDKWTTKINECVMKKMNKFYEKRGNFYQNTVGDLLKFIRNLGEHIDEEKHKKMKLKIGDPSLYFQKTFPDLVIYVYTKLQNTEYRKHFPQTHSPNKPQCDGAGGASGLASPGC

[2] = target: T1, 2-5A-dependent ribonuclease (Homo sapiens); experiment: Inhibition of his6-tagged full length human RNase L expressed in insect cells at 130 uM incubated for 30 min by FRET assay relative to control
[3] = target: T2, 2-5A-dependent ribonuclease (Homo sapiens, UniProt Q05823); experiment: Inhibition of his6-tagged full length human RNase L expressed in insect cells incubated for 30 min by FRET assay
T2 sequence (Q05823 whole entry): T1 sequence (whole entry)

[4] = target: T1, 2-5A-dependent ribonuclease (Homo sapiens); experiment: Potency index, ratio of sunitinib IC50 to test compound IC50 for inhibition of his6-tagged full length human RNase L expressed in insect cells incubated for 30 min by FRET assay
[5] = target: T1, 2-5A-dependent ribonuclease (Homo sapiens); experiment: Inhibition of his6-tagged full length human RNase L expressed in insect cells at 250 uM incubated for 30 mins in presence of 2-5A and ATP by gel based RNA cleavage assay relative to control
[6] = target: T1, 2-5A-dependent ribonuclease (Homo sapiens); experiment: Inhibition of his6-tagged full length human RNase L expressed in insect cells incubated for 30 mins in presence of 2-5A and ATP by gel based RNA cleavage assay; settings: dose 250.0 µM
[7] = target: T1, 2-5A-dependent ribonuclease (Homo sapiens); experiment: Binding affinity to his6-tagged full length human RNase L expressed in insect cells by biolayer interferometry analysis
[8] = target: T1, 2-5A-dependent ribonuclease (Homo sapiens); experiment: Inhibition of RNase L in human HeLa cells assessed as ribosomal RNA degradation at 2 uM incubated for 4 hrs by NanoDrop spectrophotometry analysis; type: cell-based
[9] = target: T1, 2-5A-dependent ribonuclease (Homo sapiens); experiment: Inhibition of RNase L in human HeLa cells assessed as ribosomal RNA degradation at 10 uM incubated for 4 hrs by NanoDrop spectrophotometry analysis relative to control; type: cell-based

SMILES	inhibition [1]	other results
CCN(CC)CCNC(=O)c1c(C)[nH]c(/C=C2\C(=O)Nc3ccc(F)cc32)c1C	83%	–
CCN(CC)CCNC(=O)c1c(C)[nH]c(/C=C2/OC(Nc3cccc(F)c3)=C(C(=O)NCCNC(=O)OC(C)(C)C)C2=O)c1C	84%	–
CCN(CC)CCNC(=O)c1c(C)[nH]c(/C=C2/SC(Nc3ccc(F)cc3)=C(C(=O)NC)C2=O)c1C	< 5%	–
CCN(CC)CCNC(=O)c1c(C)[nH]c(/C=C2/SC(Nc3cccc(F)c3)=C(C(=O)NC)C2=O)c1C	58%	–
CCN(CC)CCNC(=O)c1c(C)[nH]c(/C=C2/SC(Nc3ccccc3)=C(C(=O)NC)C2=O)c1C	67%	–
CCOC(=O)C1=C(Nc2cccc([N+](=O)[O-])c2)S/C(=C/c2[nH]c(C)c(C(=O)NCCN(CC)CC)c2C)C1=O	76%	–
CCOC(=O)C1=C(Nc2ccc(C(F)(F)F)cc2)S/C(=C/c2[nH]c(C)c(C(=O)NCCN(CC)CC)c2C)C1=O	90%	–
CCN(CC)CCNC(=O)c1c(C)[nH]c(/C=C2/SC(Nc3cccc(C(F)(F)F)c3)=C(C(=O)NC)C2=O)c1C	–	inhibition [2]: 97%
CCOC(=O)C1=C(Nc2ccc(C)cc2)S/C(=C/c2[nH]c(C)c(C(=O)NCCN(CC)CC)c2C)C1=O	83%	–
CCN(CC)CCNC(=O)c1c(C)[nH]c(/C=C2/SC(Nc3cccc(OC)c3)=C(C(=O)NCCNC(=O)OC(C)(C)C)C2=O)c1C	–	inhibition [2]: 49%
CCOC(=O)C1=C(Nc2ccc(OC)cc2)S/C(=C/c2[nH]c(C)c(C(=O)NCCN(CC)CC)c2C)C1=O	70%	–
CCN(CC)CCNC(=O)c1c(C)[nH]c(/C=C2/SC(Nc3cccc(F)c3)=C(C(=O)NCCNC(=O)OC(C)(C)C)C2=O)c1C	100%	–
CCOC(=O)C1=C(Nc2ccc(Br)cc2)S/C(=C/c2[nH]c(C)c(C(=O)NCCN(CC)CC)c2C)C1=O	90%	–
CCN(CC)CCNC(=O)c1c(C)[nH]c(/C=C2/OC(Nc3ccccc3)=C(C(=O)NCCNC(=O)OC(C)(C)C)C2=O)c1C	79%	–
CCN(CC)CCNC(=O)c1c(C)[nH]c(/C=C2/SC(Nc3cccc(OC)c3)=C(C(=O)NC)C2=O)c1C	99%	–
CCN(CC)CCNC(=O)c1c(C)[nH]c(/C=C2/SC(Nc3cccc(Cl)c3)=C(C(=O)NCCNC(=O)OC(C)(C)C)C2=O)c1C	96%	–
CCOC(=O)C1=C(Nc2ccc(OC)c(OC)c2)S/C(=C/c2[nH]c(C)c(C(=O)NCCN(CC)CC)c2C)C1=O	79%	–
CCOC(=O)C1=C(Nc2ccc([N+](=O)[O-])cc2)S/C(=C/c2[nH]c(C)c(C(=O)NCCN(CC)CC)c2C)C1=O	67%	–

SMILES	inhibition [1]	other results
CCN(CC)CCNC(=O)c1c(C)[nH]c(/C=C2/SC(Nc3cccc([N+](=O)[O-])c3)=C(C(=O)NC)C2=O)c1C	–	inhibition [2]: 60%
CCN(CC)CCNC(=O)c1c(C)[nH]c(/C=C2/OC(Nc3ccccc3)=C(C(=O)NCCN)C2=O)c1C	93%	–
CCN(CC)CCNC(=O)c1c(C)[nH]c(/C=C2/SC(Nc3cccc(OC)c3)=C(C(=O)NCCN)C2=O)c1C	101%	IC50 [3]: 13 µM; Ratio IC50 [4]: 30; inhibition [5]: 100%; inhibition [6]: Dose-Dependent Effect; Activity [7]: Active
CCN(CC)CCNC(=O)c1c(C)[nH]c(/C=C2/SC(Nc3cccc(F)c3)=C(C(=O)NCCN)C2=O)c1C	102%	IC50 [3]: 16 µM; inhibition [5]: 100%; inhibition [6]: Dose-Dependent Effect; Activity [7]: Active; inhibition [8]: Active; inhibition [9]: 100%
CCOC(=O)C1=C(Nc2ccccc2Br)S/C(=C/c2[nH]c(C)c(C(=O)NCCN(CC)CC)c2C)C1=O	85%	–
CCOC(=O)C1=C(Nc2ccc(F)cc2)S/C(=C/c2[nH]c(C)c(C(=O)NCCN(CC)CC)c2C)C1=O	80%	–
CCN(CC)CCNC(=O)c1c(C)[nH]c(/C=C2/SC(Nc3ccccc3)=C(C(=O)NCCNC(=O)OC(C)(C)C)C2=O)c1C	75%	–
CCN(CC)CCNC(=O)c1c(C)[nH]c(/C=C2/OC(Nc3cccc(F)c3)=C(C(=O)NCCN)C2=O)c1C	97%	IC50 [3]: 41.9 µM
CCN(CC)CCNC(=O)c1c(C)[nH]c(/C=C2/SC(Nc3cccc(Cl)c3)=C(C(=O)NCCN)C2=O)c1C	101%	IC50 [3]: 12 µM; inhibition [5]: 100%; inhibition [6]: Dose-Dependent Effect; Activity [7]: Active
CCOC(=O)C1=C(Nc2cccc(F)c2)S/C(=C/c2[nH]c(C)c(C(=O)NCCN(CC)CC)c2C)C1=O	76%	–
CCN(CC)CCNC(=O)c1c(C)[nH]c(/C=C2/SC(Nc3cccc(Cl)c3)=C(C(=O)NC)C2=O)c1C	–	inhibition [2]: 88%
CCOC(=O)C1=C(Nc2ccc(CC)cc2)S/C(=C/c2[nH]c(C)c(C(=O)NCCN(CC)CC)c2C)C1=O	83%	–
CCN(CC)CCNC(=O)c1c(C)[nH]c(/C=C2/SC(Nc3cccc(F)c3)=C(C(=O)NCc3ccccc3)C2=O)c1C	99%	–
CCN(CC)CCNC(=O)c1c(C)[nH]c(/C=C2/OC(Nc3ccccc3)=C(C(=O)NC)C2=O)c1C	74%	–
CCOC(=O)C1=C(Nc2cccc(OC)c2)S/C(=C/c2[nH]c(C)c(C(=O)NCCN(CC)CC)c2C)C1=O	78%	–
CCN(CC)CCNC(=O)c1c(C)[nH]c(/C=C2/SC(Nc3ccccc3)=C(C(=O)NCCN)C2=O)c1C	101%	IC50 [3]: 28 µM
CCOC(=O)C1=C(Nc2ccccc2)S/C(=C/c2[nH]c(C)c(C(=O)NCCN(CC)CC)c2C)C1=O	78%	–

— ChEMBL document CHEMBL5370552, “Rational design and evaluation of 2-((pyrrol-2-yl)methylene)thiophen-4-ones as RNase L inhibitors” (Eur J Med Chem, 2023)
